Assay results taken from patent US20060051321A1, “Biological compositions and methods for treatment of testicular cancer” (Ultra Biotech Limited, priority 2003, published 2006).

What was measured:
Assay type in all cases: in vivo
[1] = test system: testicular cancer cell line HTB-104; experiment: Tumor growth in kun ming mouse model of human testicular cancer (Example 6); conditions: mice injected s.c. with HTB-104 cells; 30 consecutive days of treatment; sacrificed on 31st day from tumor inoculation
Excerpt: The following example illustrates the benefit of a biological composition of the invention in a kun ming mouse model of human testicular cancer. The growth of tumors in the mice was studied.
Numerous animal studies have reported the use of kun ming mouse models in the study of human testicular cancer. There is almost a 100% success rate for transplanting testicular tumor HTB-104 cells in mice. The testicular tumor cell line HTB-104 can be ordered from the American Type Culture Collection.
(§1) The biological composition comprising 10^8 cells per ml of activated and conditioned yeast cells of the strain Saccharomyces cerevisiae Hansen strain AS2.182 was prepared by the methods described in Section 5.1 and subsections therein.
The animals used for the experiments were kun ming mouse (obtainable from the Chinese Academy of Military Medical Sciences, Beijing, China). Only males 20 to 22 gram in body weight, 6 to […] old were used. […]
The mice received the biological compositions, untreated yeast cells, BLM or saline on the same day as the tumor cells were transplanted. […] On the 31st day from tumor inoculation, the mice were sacrificed and the weight of the mice and the weight of the tumor were determined by standard techniques.

[2] = test system: testicular cancer cell line HTB-104; experiment: Survival in kun ming mouse model of human testicular cancer (Example 7); conditions: for Number of live animals remaining in the groups after 30 days of treatment: 30 mice per group
Protocol: The following example illustrates the benefit of a biological composition of the invention in a kun ming mouse model of human testicular cancer. The survival time of rats after tumor injection and treatment was studied.
The biological composition comprising 10^8 cells per ml of activated and conditioned yeast cells of the strain Saccharomyces cerevisiae Hansen strain AS2. 182 was prepared by the methods described in Section 5.1 and subsections therein.
The animals were prepared in a similar manner as described in Section 6.1.
After injection with HTB-104 cells, the mice were divided into 4 experimental groups of ten mice per group and one control group. The four experimental groups were triplicated (i.e., using a total of 120 mice in the experimental groups). In group 2AY, the mice received 0.5 ml of the biological composition once per day. In group 2NY, the mice received 0.5 ml of the untreated yeast cells once per day. In group 2BLM, the mice were injected subcutaneously with 0.8 mg of bleomycin (BLM) per kg body weight per day. In group 2CK1, the mice received 0.5 ml of physiological saline once per day.
The mice received the biological compositions, untreated yeast cells, BLM or saline on the same day as the tumor cells were transplanted. The mice in group 2CK2 also started receiving saline on the same day as the other four groups. The biological compositions, untreated yeast cells or saline were administered orally by a feeding tube and the BLM by subcutaneous injection for 30 consecutive days. The mice were observed over 6 months from the day of tumor inoculation and survival was recorded. The weight of the mice and the weight of the tumor were determined by standard techniques.

[3] = test system: testicular cancer cell line CRL-1973; experiment: Survival in Wistar rat model of human testicular cancer (Example 9); conditions: for Number of live animals remaining in the groups after 30 days of treatment: 30 rats per group
Protocol: The survival time of mice after tumor injection and treatment was studied.
as §1
The animals were prepared in a similar manner as described in Section 8.1.
After injection with CRL-1973 cells, the rats were divided into 4 experimental groups of ten rats per group and one control group. The four experimental groups were triplicated (ie., using a total of 120 rats in the experimental groups). In group 2AY, the rats received 1.2 ml of the biological composition once per day. In group 2NY, the rats received 1.2 ml of the untreated yeast cells once per day. […] In group 2CK1, the rats received 1.2 ml of physiological saline once per day.
The rats received the biological compositions, untreated yeast cells, VLB or saline on the same day as the tumor cells were transplanted. The rats in group 2CK2 also started receiving saline on the same day as the other four groups. The biological compositions, untreated yeast cells and saline were administered orally by a feeding tube and the VLB by intravenous injection for 30 consecutive days. The mice were observed over 6 months from the day of tumor inoculation and survival was recorded. The weight of the mice and the weight of the tumor were determined by standard techniques.

[4] = test system: testicular cancer cell line CRL-1973; experiment: Tumor growth in Wistar rat model of human testicular cancer (Example 8); conditions: rats injected s.c. with CRL-1973 cells; 30 consecutive days of treatment; sacrificed on 31st day from tumor inoculation
Excerpt: The following example illustrates the benefit of a biological composition of the invention in a Wistar rat model of human testicular cancer. The growth of the tumor in the rats was studied.
Numerous animal studies have reported the use of Wistar rat models in the study of human testicular cancer. There is very high success rate for transplanting testicular tumor CRL-1973 cells in rats. The testicular tumor cell line CRL-1973 can be ordered from the American Type Culture Collection.
as §1
The animals used for the experiments were male Wistar rats (obtainable from the Chinese Academy of Military Medical Sciences, Beijing, China). About 2×10^7 viable tumor cells of the testicular cancer cell line CRL-1973 (obtainable from the Cancer Institute, Chinese Academy of Medical Sciences, Beijing, China) in about 0.2 ml culture suspension was injected subcutaneously into the animals. […]
The rats received the biological compositions, untreated yeast cells, VLB or saline on the same day as the tumor cells were transplanted. […] The weight of the rats and the weight of the tumor were determined by standard techniques.

[5] = 0 month after cessation of treatment
[6] = 1 month after cessation of treatment
[7] = 2 months after cessation of treatment
[8] = 3 months after cessation of treatment
[9] = 4 months after cessation of treatment
[10] = 5 months after cessation of treatment
[11] = 6 months after cessation of treatment

Compound	mean weight of tumor nodules and standard deviation [1] [mg]	Number of live animals remaining in the groups after 30 days of treatment [2, 5]	Number of live animals remaining in the groups after 30 days of treatment [2, 6]	Number of live animals remaining in the groups after 30 days of treatment [2, 7]	Number of live animals remaining in the groups after 30 days of treatment [2, 8]	Number of live animals remaining in the groups after 30 days of treatment [2, 9]	Number of live animals remaining in the groups after 30 days of treatment [2, 10]	Number of live animals remaining in the groups after 30 days of treatment [2, 11]	death of all animals, time from injection of tumor cells ([2]; mice bearing HTB-104 cells, 30 days of treatment)	mean weight of tumor nodules and standard deviation ([2]; mice that survived, observed over 6 months from tumor inoculation)	Number of live animals remaining in the groups after 30 days of treatment [3, 5]	Number of live animals remaining in the groups after 30 days of treatment [3, 6]	Number of live animals remaining in the groups after 30 days of treatment [3, 7]	Number of live animals remaining in the groups after 30 days of treatment [3, 8]	Number of live animals remaining in the groups after 30 days of treatment [3, 9]	Number of live animals remaining in the groups after 30 days of treatment [3, 10]	Number of live animals remaining in the groups after 30 days of treatment [3, 11]	death of all animals, time from injection of tumor cells ([3]; rats bearing CRL-1973 cells, 30 days of treatment)	mean weight of tumor nodules and standard deviation ([3]; rats that survived, observed over 6 months from tumor inoculation)	mean weight of tumor nodules and standard deviation [4] [g]
bleomycin [BLM]	1.13 ± 0.65	30	27	16	0	0	0	0	all died after three months	all animals dead										
CC[C@]1(O)C[C@@H]2CN(CCc3c([nH]c4ccccc34)[C@@](C(=O)OC)(c3cc4c(cc3OC)N(C)[C@H]3[C@@](O)(C(=O)OC)[C@H](OC(C)=O)[C@]5(CC)C=CCN6CC[C@]43[C@@H]65)C2)C1 [VLB, vinblastine]											30	30	22	9	1	0	0	all died after five months	all animals dead	2.67 ± 2.65
